Source: patent US20230310428A1, “EGFR INHIBITOR AND PREPARATION METHOD AND USE THEREOF” (HONGYUN BIOTECH CO., LTD., priority 2020, published 2023)

Assays:
Assay in all cases: Growth inhibitory activity of compounds on BaF3 cell lines stably transfected with kinase (MTS, 48 h)
Assay type in all cases: cell-based
[1] = target: T1, various mutants of kinase EGFR (BaF3 cell lines stably transfected with kinase) (Homo sapiens, UniProt P00533, T790M, form not given); conditions: BaF3 cell line stably transfected with EGFR Δ19Del/T790M, read-out: Δ19Del/ T790M growth inhibitory activity IC50
T1 construct: other: BaF3 cells stably transfected with EGFR Δ19Del/T790M; MTS, 48 h; other: BaF3 cell line stably transfected with EGFR Δ19Del/T790M; MTS, 48
T1 sequence (P00533 with tags, fused parts or gaps DEL746-750/T790M, form open): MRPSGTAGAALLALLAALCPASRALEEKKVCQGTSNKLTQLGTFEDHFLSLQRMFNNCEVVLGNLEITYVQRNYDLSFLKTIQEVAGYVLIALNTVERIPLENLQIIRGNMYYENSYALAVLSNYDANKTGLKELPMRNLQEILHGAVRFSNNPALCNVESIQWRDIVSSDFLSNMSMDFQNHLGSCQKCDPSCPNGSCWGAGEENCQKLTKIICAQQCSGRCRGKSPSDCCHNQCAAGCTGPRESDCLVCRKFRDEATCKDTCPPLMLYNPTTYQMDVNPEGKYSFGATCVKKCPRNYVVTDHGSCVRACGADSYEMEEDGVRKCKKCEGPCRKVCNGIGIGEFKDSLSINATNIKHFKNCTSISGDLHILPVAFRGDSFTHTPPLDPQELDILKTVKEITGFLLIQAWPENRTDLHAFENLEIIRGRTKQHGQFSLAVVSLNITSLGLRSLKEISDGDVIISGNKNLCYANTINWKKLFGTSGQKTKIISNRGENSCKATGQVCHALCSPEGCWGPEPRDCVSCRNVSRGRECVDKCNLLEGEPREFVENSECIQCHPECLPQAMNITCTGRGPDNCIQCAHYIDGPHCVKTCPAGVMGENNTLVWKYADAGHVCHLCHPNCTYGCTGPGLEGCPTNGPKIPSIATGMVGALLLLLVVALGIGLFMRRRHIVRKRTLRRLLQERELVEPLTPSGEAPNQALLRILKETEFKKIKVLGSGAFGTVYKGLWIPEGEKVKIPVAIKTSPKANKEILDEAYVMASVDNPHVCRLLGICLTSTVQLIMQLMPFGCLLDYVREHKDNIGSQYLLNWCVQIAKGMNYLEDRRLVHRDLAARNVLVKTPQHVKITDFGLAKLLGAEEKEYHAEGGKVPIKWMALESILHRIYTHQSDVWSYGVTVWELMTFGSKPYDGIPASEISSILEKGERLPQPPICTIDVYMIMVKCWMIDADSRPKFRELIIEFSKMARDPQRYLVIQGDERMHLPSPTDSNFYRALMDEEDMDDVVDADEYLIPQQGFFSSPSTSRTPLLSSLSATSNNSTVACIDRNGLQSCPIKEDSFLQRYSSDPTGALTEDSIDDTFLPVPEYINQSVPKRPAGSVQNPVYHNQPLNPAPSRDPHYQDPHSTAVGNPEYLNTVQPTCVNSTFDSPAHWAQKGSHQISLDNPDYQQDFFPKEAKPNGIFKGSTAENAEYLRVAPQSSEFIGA
Method in brief: (§1)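 OD at 490 nm after 1-4 h MTS/PES incubation gave growth inhibition relative to 0.1% DMSO negative and cell-free medium blank. Compounds: 8-point 1/3 dilution from 10 µM, 48 h, 37 °C. IC50 from inhibition curves; duplicates.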

[2] = target: T2, various mutants of kinase EGFR (BaF3 cell lines stably transfected with kinase) (Homo sapiens, UniProt P00533, T790M/C797S, form not given); conditions: BaF3 cell line stably transfected with EGFR Δ19Del/T790M/C797S, read-out: Δ19Del/T790M/ C797S growth inhibitory activity IC50
T2 construct: other: BaF3 cells stably transfected with EGFR Δ19Del/T790M/C797S; MTS, 48; other: BaF3 cell line stably transfected with EGFR Δ19Del/T790M/C7
T2 sequence (P00533 with tags, fused parts or gaps DEL746-750/T790M/C797S, form open): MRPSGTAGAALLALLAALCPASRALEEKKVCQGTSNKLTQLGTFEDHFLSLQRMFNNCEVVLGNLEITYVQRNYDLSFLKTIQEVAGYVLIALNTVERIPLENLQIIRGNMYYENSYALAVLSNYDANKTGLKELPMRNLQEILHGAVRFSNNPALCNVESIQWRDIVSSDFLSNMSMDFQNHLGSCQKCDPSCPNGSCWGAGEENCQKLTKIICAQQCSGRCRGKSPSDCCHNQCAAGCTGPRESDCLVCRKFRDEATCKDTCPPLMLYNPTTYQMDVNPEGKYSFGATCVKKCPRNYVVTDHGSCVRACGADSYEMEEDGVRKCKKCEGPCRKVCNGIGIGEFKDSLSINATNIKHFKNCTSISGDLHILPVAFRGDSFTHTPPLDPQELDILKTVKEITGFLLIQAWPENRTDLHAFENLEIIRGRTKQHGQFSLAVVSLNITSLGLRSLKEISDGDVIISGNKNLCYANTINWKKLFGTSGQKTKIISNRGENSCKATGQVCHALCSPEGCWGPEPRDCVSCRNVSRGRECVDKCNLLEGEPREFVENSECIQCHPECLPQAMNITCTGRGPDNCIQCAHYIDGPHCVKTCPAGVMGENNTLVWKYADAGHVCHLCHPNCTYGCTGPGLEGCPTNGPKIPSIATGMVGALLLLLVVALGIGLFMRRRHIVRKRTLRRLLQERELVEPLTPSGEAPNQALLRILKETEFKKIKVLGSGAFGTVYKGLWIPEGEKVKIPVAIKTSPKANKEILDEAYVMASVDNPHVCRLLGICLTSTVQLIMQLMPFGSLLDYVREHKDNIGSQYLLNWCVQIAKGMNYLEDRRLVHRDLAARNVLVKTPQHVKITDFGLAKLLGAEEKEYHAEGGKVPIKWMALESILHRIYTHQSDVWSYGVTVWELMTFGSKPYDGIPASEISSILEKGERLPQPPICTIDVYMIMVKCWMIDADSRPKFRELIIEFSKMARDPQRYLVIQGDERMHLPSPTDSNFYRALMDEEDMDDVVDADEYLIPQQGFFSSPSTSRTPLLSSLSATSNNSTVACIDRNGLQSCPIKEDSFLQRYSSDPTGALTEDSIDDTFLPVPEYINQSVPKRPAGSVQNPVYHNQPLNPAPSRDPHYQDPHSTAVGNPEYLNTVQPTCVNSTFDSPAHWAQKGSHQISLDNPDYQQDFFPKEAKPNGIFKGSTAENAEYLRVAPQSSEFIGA
Method in brief: as §1

[3] = target: T3, various mutants of kinase EGFR (BaF3 cell lines stably transfected with kinase) (Homo sapiens, UniProt P00533, C797S/L858R/T790M); conditions: BaF3 cell line stably transfected with EGFR L858R/T790M/C797S, read-out: L858R/T790M/ C797S growth inhibitory activity IC50
T3 construct: expressed in transfected cells; host or cells: BaF3
T3 sequence (P00533 25-1210 T790M/C797S/L858R): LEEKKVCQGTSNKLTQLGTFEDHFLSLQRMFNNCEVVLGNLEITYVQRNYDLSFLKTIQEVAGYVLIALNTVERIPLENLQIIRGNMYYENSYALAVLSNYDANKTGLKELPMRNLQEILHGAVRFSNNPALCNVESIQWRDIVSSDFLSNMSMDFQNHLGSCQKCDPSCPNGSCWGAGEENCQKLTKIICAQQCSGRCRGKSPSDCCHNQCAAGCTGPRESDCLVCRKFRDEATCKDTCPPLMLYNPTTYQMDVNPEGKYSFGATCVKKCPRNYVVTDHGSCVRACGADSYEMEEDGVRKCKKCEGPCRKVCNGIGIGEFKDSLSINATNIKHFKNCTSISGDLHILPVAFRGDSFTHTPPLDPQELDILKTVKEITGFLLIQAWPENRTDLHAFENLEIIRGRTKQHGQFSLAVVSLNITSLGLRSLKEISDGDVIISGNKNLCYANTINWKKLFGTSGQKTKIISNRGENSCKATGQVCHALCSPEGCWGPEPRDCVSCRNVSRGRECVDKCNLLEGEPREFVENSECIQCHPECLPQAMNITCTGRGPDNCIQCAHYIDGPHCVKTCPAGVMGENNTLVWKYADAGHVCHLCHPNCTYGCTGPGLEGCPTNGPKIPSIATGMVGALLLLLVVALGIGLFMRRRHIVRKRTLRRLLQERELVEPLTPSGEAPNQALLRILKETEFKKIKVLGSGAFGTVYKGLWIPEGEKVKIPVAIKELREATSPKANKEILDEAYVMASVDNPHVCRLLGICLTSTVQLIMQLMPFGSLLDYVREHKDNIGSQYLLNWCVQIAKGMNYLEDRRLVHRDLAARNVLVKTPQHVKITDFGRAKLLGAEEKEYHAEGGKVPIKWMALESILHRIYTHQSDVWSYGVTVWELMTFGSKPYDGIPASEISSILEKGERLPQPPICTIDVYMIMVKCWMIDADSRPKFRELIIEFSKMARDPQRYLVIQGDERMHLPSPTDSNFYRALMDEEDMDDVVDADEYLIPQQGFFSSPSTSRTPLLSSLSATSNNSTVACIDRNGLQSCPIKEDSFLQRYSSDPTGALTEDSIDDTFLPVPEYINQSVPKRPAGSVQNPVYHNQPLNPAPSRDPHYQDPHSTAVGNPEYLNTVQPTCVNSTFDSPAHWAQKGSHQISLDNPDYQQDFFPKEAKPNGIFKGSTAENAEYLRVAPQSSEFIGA
Method in brief: as §1

[4] = target: T4, various mutants of kinase EGFR (BaF3 cell lines stably transfected with kinase) (Homo sapiens, UniProt P00533, L858R); conditions: BaF3 cell line stably transfected with EGFR L858R, read-out: L858R growth inhibitory activity IC50
T4 construct: expressed in transfected cells; host or cells: BaF3
Method in brief: as §1

[5] = target: T5, various mutants of kinase EGFR (BaF3 cell lines stably transfected with kinase) (Homo sapiens, UniProt P00533); conditions: BaF3 cell line stably transfected with EGFR Δ19Del, read-out: Δ19Del growth inhibitory activity IC50
T5 construct: other: BaF3 cells stably transfected with EGFR Δ19Del; MTS, 48 h; other: BaF3 cell line stably transfected with EGFR Δ19Del
T5 sequence (P00533 with tags, fused parts or gaps DEL746-750): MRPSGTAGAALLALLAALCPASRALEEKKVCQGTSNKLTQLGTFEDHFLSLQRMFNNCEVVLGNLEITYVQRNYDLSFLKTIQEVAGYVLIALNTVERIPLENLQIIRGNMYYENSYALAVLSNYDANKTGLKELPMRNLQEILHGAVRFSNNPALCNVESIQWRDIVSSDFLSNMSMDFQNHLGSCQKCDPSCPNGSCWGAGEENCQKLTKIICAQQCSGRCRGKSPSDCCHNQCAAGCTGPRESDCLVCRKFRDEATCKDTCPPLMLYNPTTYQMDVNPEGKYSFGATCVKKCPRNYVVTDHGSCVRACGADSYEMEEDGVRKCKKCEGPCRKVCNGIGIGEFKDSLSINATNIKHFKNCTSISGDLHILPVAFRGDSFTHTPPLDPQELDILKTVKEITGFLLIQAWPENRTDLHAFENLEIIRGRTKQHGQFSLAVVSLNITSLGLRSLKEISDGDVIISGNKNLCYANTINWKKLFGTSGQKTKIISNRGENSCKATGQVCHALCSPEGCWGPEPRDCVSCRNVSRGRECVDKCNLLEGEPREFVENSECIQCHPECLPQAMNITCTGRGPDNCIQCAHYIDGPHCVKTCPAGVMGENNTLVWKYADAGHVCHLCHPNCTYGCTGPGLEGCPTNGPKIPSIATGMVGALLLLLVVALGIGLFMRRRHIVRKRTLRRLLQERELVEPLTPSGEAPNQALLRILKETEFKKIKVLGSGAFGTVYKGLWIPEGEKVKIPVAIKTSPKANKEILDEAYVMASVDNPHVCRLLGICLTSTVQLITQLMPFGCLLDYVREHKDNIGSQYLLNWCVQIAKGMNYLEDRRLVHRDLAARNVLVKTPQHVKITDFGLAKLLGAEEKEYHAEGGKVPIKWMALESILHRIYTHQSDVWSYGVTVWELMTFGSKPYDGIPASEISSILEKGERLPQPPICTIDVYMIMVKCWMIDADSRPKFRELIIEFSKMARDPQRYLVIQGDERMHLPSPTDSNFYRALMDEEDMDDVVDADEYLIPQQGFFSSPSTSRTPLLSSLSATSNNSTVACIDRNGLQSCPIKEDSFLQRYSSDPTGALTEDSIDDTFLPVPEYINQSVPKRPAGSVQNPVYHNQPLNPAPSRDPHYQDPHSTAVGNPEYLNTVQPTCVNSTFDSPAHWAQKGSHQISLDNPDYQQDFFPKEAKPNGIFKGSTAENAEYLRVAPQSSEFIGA
Method in brief: as §1

[6] = target: T6, various mutants of kinase EGFR (BaF3 cell lines stably transfected with kinase) (Homo sapiens, UniProt P00533, L858R/T790M); conditions: BaF3 cell line stably transfected with EGFR L858R/T790M, read-out: L858R/ T790M growth inhibitory activity IC50
T6 construct: expressed in transfected cells; host or cells: BaF3
Method in brief: as §1

IC50 [1] [nM] | IC50 [2] [nM] | IC50 [3] [nM] | IC50 [4] [nM] | IC50 [5] [nM] | IC50 [6] [nM] | Compound
50 to 500 | ≤ 50 | 50 to 500 | 50 to 500 | 50 to 500 | 50 to 500 | COc1cc(N2CCC(N3CCN(C)CC3)CC2)ccc1Nc1ncc(C)c(Nc2ccc3nccnc3c2N(C)S(C)(=O)=O)n1 [Compound I-313]
≤ 50 | ≤ 50 | ≤ 50 | 50 to 500 | 50 to 500 | ≤ 50 | CCc1cc(Nc2ncc(C)c(Nc3ccc4nccnc4c3N(C)S(C)(=O)=O)n2)c(OC(F)(F)F)cc1N1CCC(N2CCN(C)CC2)CC1 [Compound I-314]
≤ 50 | ≤ 50 | ≤ 50 | ≤ 50 | ≤ 50 | ≤ 50 | CCc1cc(Nc2ncc(C)c(Nc3ccc4nccnc4c3N(C)S(C)(=O)=O)n2)c(OC)cc1N1CCN(C)CC1 [Compound I-315]
50 to 500 | ≤ 50 | 50 to 500 | 50 to 500 | 50 to 500 | 50 to 500 | CCc1cnc(Nc2ccc(N3CCC(N4CCN(C)CC4)CC3)cc2OC)nc1Nc1ccc2nccnc2c1N(C)S(C)(=O)=O [Compound I-316]
≤ 50 | ≤ 50 | ≤ 50 | ≤ 50 | ≤ 50 | ≤ 50 | CCc1cnc(Nc2cc(C)c(N3CCC(N4CCN(C)CC4)CC3)cc2OC)nc1Nc1ccc2nccnc2c1N(C)S(C)(=O)=O [Compound I-317]
≤ 50 | ≤ 50 | ≤ 50 | ≤ 50 | ≤ 50 | ≤ 50 | CCc1cc(Nc2ncc(CC)c(Nc3ccc4nccnc4c3N(C)S(C)(=O)=O)n2)c(OC)cc1N1CCC(N2CCN(C)CC2)CC1 [Compound I-318]
≤ 50 | ≤ 50 | ≤ 50 | ≤ 50 | ≤ 50 | ≤ 50 | CCc1cc(Nc2ncc(CC)c(Nc3ccc4nccnc4c3N(C)S(C)(=O)=O)n2)ccc1N1CCC(N2CCN(C)CC2)CC1 [Compound I-319]
≤ 50 | ≤ 50 | ≤ 50 | ≤ 50 | ≤ 50 | ≤ 50 | CCc1cnc(Nc2cc(CC)c(N3CCC(N4CCN(C)CC4)CC3)nc2OC)nc1Nc1ccc2nccnc2c1N(C)S(C)(=O)=O [Compound I-320]
≤ 50 | ≤ 50 | 50 to 500 | 50 to 500 | 50 to 500 | 50 to 500 | CCc1cc(Nc2ncc(CC)c(Nc3ccc4nccnc4c3N(C)S(C)(=O)=O)n2)c(OC(F)(F)F)cc1N1CCC(N2CCN(C)CC2)CC1 [Compound I-321]
≤ 50 | ≤ 50 | ≤ 50 | ≤ 50 | ≤ 50 | ≤ 50 | CCc1cc(Nc2ncc(CC)c(Nc3ccc4nccnc4c3N(C)S(C)(=O)=O)n2)c(OC)cc1N1CCN(C)CC1 [Compound I-322]
≤ 50 | ≤ 50 | ≤ 50 | ≤ 50 | ≤ 50 | ≤ 50 | CCc1cc(Nc2ncc(CC)c(Nc3ccc4nccnc4c3N(C)S(C)(=O)=O)n2)c(OC)cc1N1CCC(N(C)C)CC1 [Compound I-323]
≤ 50 | ≤ 50 | ≤ 50 | ≤ 50 | ≤ 50 | ≤ 50 | CCc1cc(Nc2ncc(CC)c(Nc3ccc4nccnc4c3N(C)S(C)(=O)=O)n2)c(OC)cc1N1CCC(N(C)C)C1 (stereo not drawn) [Compound I-324]
50 to 500 | ≤ 50 | 50 to 500 | 50 to 500 | 50 to 500 | 50 to 500 | COc1cc(N2CCC(N3CCN(C)CC3)CC2)ccc1Nc1ncc(C(C)C)c(Nc2ccc3nccnc3c2N(C)S(C)(=O)=O)n1 [Compound I-325]
50 to 500 | 50 to 500 | 50 to 500 | 50 to 500 | 50 to 500 | 50 to 500 | COc1cc(N2CCC(N3CCN(C)CC3)CC2)c(C)cc1Nc1ncc(C(C)C)c(Nc2ccc3nccnc3c2N(C)S(C)(=O)=O)n1 [Compound I-326]
≤ 50 | 50 to 500 | 50 to 500 | ≤ 50 | ≤ 50 | ≤ 50 | CCc1cc(Nc2ncc(C(C)C)c(Nc3ccc4nccnc4c3N(C)S(C)(=O)=O)n2)c(OC)cc1N1CCC(N2CCN(C)CC2)CC1 [Compound I-327]
≤ 50 | 50 to 500 | 50 to 500 | 50 to 500 | 50 to 500 | ≤ 50 | CCc1cc(Nc2ncc(C(C)C)c(Nc3ccc4nccnc4c3N(C)S(C)(=O)=O)n2)c(OC)nc1N1CCC(N2CCN(C)CC2)CC1 [Compound I-328]
≤ 50 | 50 to 500 | 50 to 500 | 50 to 500 | 50 to 500 | ≤ 50 | CCc1cc(Nc2ncc(C(C)C)c(Nc3ccc4nccnc4c3N(C)S(C)(=O)=O)n2)c(OC)cc1N1CCN(C)CC1 [Compound I-329]
≤ 50 | ≤ 50 | ≤ 50 | ≤ 50 | ≤ 50 | ≤ 50 | CCc1cc(Nc2ncc(C(C)C)c(Nc3ccc4nccnc4c3N(C)S(C)(=O)=O)n2)c(OC)cc1N1CCC(N(C)C)CC1 [Compound I-330]
≤ 50 | ≤ 50 | ≤ 50 | 50 to 500 | 50 to 500 | 50 to 500 | CCc1cc(Nc2ncc(C(C)C)c(Nc3ccc4nccnc4c3N(C)S(C)(=O)=O)n2)c(OC)cc1N1CCC(N(C)C)C1 (stereo not drawn) [Compound I-331]
≤ 50 | ≤ 50 | ≤ 50 | ≤ 50 | ≤ 50 | ≤ 50 | COc1cc(N2CCC(N3CCN(C)CC3)CC2)c(C)cc1Nc1ncc(OC)c(Nc2ccc3nccnc3c2N(C)S(C)(=O)=O)n1 [Compound I-332]
≤ 50 | ≤ 50 | ≤ 50 | ≤ 50 | ≤ 50 | ≤ 50 | CCc1cc(Nc2ncc(OC)c(Nc3ccc4nccnc4c3N(C)S(C)(=O)=O)n2)c(OC)cc1N1CCC(N2CCN(C)CC2)CC1 [Compound I-333]
≤ 50 | ≤ 50 | ≤ 50 | ≤ 50 | ≤ 50 | ≤ 50 | CCc1cc(Nc2ncc(OC)c(Nc3ccc4nccnc4c3N(C)S(C)(=O)=O)n2)c(OC)nc1N1CCC(N2CCN(C)CC2)CC1 [Compound I-334]
≤ 50 | ≤ 50 | ≤ 50 | ≤ 50 | ≤ 50 | ≤ 50 | CCc1cc(Nc2ncc(OC)c(Nc3ccc4nccnc4c3N(C)S(C)(=O)=O)n2)c(OC)cc1N1CCC(N(C)C)C1 (stereo not drawn) [Compound I-335]
50 to 500 | 500 to 2500 | 50 to 500 | 50 to 500 | 50 to 500 | 50 to 500 | CCOc1cnc(Nc2cc(C)c(N3CCC(N4CCN(C)CC4)CC3)cc2OC)nc1Nc1ccc2nccnc2c1N(C)S(C)(=O)=O [Compound I-336]
≤ 50 | 50 to 500 | 50 to 500 | 50 to 500 | ≤ 50 | 50 to 500 | CCOc1cnc(Nc2cc(CC)c(N3CCC(N4CCN(C)CC4)CC3)cc2OC)nc1Nc1ccc2nccnc2c1N(C)S(C)(=O)=O [Compound I-337]
